Source: patent US10167299B2, “1-(3-aminopropyl) substituted cyclic amine compounds, preparation method therefor, and pharmaceutical compositions and uses thereof” (SHANGHAI INSTITUTE OF MATERIA MEDICA, CHINESE ACADEMY OF …, priority 2013, dated 2019)

Key:
[1] = test system: PBMC cells; assay: Toxicity test of compounds on PBMC cells (MTT); assay type: cell-based
Method in brief: (§1)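 MTT read-out (570 nm, 630 nm reference) after 3-day culture of HOS-CD4-CCR5 cells at 4×10^5/ml or 7-day culture of PHA-activated PBMC at 5×10^6/ml, with fresh medium added on day 3. Compounds were tested as six 5-fold dilutions in triplicate, in 10% FBS medium at 37 °C, 5% CO2.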

[2] = test system: HOS-CD4-CCR5 cells; assay: Toxicity test of compounds on HOS-CD4-CCR5 cells (MTT); assay type: cell-based; conditions: HOS-CD4+-CCR5 cells (Table 8)
Method in brief: as §1

[3] = test system: Salmonella typhimurium strain TA98; assay: Bacterial reverse mutation assay TA98 (-S9); assay type: cell-based; conditions: for mutagenic effect on Salmonella typhimurium strain TA98: -S9, 1-5000 μg/dish
Protocol: (§2) The mutagenic effects of compounds 18 and 22 of the present invention on Salmonella typhimurium strains TA98 and TA100 in non-metabolic activation (-S9) condition were determined. Two strains, TA98 and TA100 were chosen in bacterial reverse mutation assay for compounds 18 and 22. 9 doses containing […], negative and positive controls were set in experiments. 3 dishes were used for each dose. The experiment was carried out under -S9 condition.

[4] = test system: Salmonella typhimurium strain TA100; assay: Bacterial reverse mutation assay TA100 (-S9); assay type: cell-based; conditions: for mutagenic effect on Salmonella typhimurium strain TA100: -S9, 1-5000 μg/dish
Protocol: as §2

[5] = Pharmacokinetic experiment on Beagles
Protocol: The administration volume was 2 mL/kg and 1 mL/kg, respectively. The compound was suspended in 20% PEG400 (4:96) for gavage and formulated in DMSO/Tween 80/physiological saline (5:1:94, v/v/v) for intravenous injection. […] 2 h after dosing, all of Beagles ate together.
At above time points, 0.6 ml venous blood was taken from limb venous and loaded into EDTA-2K anticoagulative tube. After centrifuged at 11000 rpm for 5 mm, the plasma was separated and frozen at −20° C. in a refrigerator.
(§3) The pharmacokinetic parameters after administration were calculated by using non-compartment model of WinNonlin 5.3 software (Pharsight Corporation, USA).

[6] = Pharmacokinetic experiment of rats; conditions: for AUC(0-t) / AUC(0-inf) / Cmax / MRT / Tmax / bioavailability: male, rat, plasma
Protocol: The administration volume was 10 mL/kg and drug was formulated with DMSO/Tween 80/physiological saline (5:5:90, v/v/v). […] 2 h after dosing, the rats ate together.
At above time points, 0.3 ml of venous blood was taken from retrobulbar venous plexus of the rat and loaded into EDTA-2K anticoagulative tube. After centrifuged at 11000 rpm for 5 mm, the plasma was separated and frozen at −20° C. in a refrigerator.
The concentration of each compound in rat plasma was determined by LC/MS/MS.
as §3

[7] = male, beagle, dog, plasma, iv, 3 mg/kg
[8] = male, beagle, dog, plasma, po, 15 mg/kg

| Compound | CC50 [2] [µg/mL] | mutagenic effect on Salmonella typhimurium strain TA98 [3] | number of revertant colonies (Mean ± SD) ([3]; TA98, -S9, 1 μg/dish) | number of revertant colonies (Mean ± SD) ([3]; TA98, -S9, 3 μg/dish) | number of revertant colonies (Mean ± SD) ([3]; TA98, -S9, 10 μg/dish) | number of revertant colonies (Mean ± SD) ([3]; TA98, -S9, 30 μg/dish) | number of revertant colonies (Mean ± SD) ([3]; TA98, -S9, 100 μg/dish) | number of revertant colonies (Mean ± SD) ([3]; TA98, -S9, 300 μg/dish) | number of revertant colonies (Mean ± SD) ([3]; TA98, -S9, 1000 μg/dish) | number of revertant colonies (Mean ± SD) ([3]; TA98, -S9, 3000 μg/dish) | number of revertant colonies (Mean ± SD) ([3]; TA98, -S9, 5000 μg/dish) | mutagenic effect on Salmonella typhimurium strain TA100 [4] | number of revertant colonies (Mean ± SD) ([4]; TA100, -S9, 1 μg/dish) | number of revertant colonies (Mean ± SD) ([4]; TA100, -S9, 3 μg/dish) | number of revertant colonies (Mean ± SD) ([4]; TA100, -S9, 10 μg/dish) | number of revertant colonies (Mean ± SD) ([4]; TA100, -S9, 30 μg/dish) | number of revertant colonies (Mean ± SD) ([4]; TA100, -S9, 100 μg/dish) | number of revertant colonies (Mean ± SD) ([4]; TA100, -S9, 300 μg/dish) | number of revertant colonies (Mean ± SD) ([4]; TA100, -S9, 1000 μg/dish) | number of revertant colonies (Mean ± SD) ([4]; TA100, -S9, 3000 μg/dish) | also measured |
| --- | --- | --- | --- | --- | --- | --- | --- | --- | --- | --- | --- | --- | --- | --- | --- | --- | --- | --- | --- | --- | --- |
| Cc1ccc([C@H](CCN2C3CCC2CC(n2c(C)nnc2C(C)C)C3)NC(=O)C2CCC(F)(F)CC2)s1 (stereo partly drawn) [Compound 29, 4,4-difluoro-N-[(1S)-3-[exo-3-(3-isopropyl-5-methyl-4H-1,2,4-triazol-4-yl)-8-azabicyclo[3.2.1]octane-8-yl]-1-(5-methylthiophen-2-yl)propyl]cyclohexane-1-carboxamide] | >200 |  |  |  |  |  |  |  |  |  |  |  |  |  |  |  |  |  |  |  | CC50 ([1]; PBMC cells (Table 5)): >200 µg/mL; CC50 ([1]; PBMC cells (Table 6)): >200 µg/mL |
| Cc1nnc(C(C)C)n1C1CC2CCC(C1)N2CC[C@H](NC(=O)C1CCCC1)c1cccs1 (stereo partly drawn) [Compound 18, N-[(1S)-3-[exo-3-(3-isopropyl-5-methyl-4H-1,2,4-triazol-4-yl)-8-azabicyclo[3.2.1]octane-8-yl]-1-(thiophen-2-yl)propyl]cyclopentane-1-carboxamide] |  | no mutagenic effect | 24 ± 5.0 | 23 ± 2.6 | 20 ± 2.3 | 19 ± 1.5 | 15 ± 4.6 | 20 ± 4.2 | 18 ± 1.5 | 21 ± 1.5 | 20 ± 4.9 | no mutagenic effect | 116 ± 9.0 | 96 ± 10.0 | 95 ± 13.1 | 100 ± 8.3 | 88 ± 0.6 | 91 ± 18.2 | 106 ± 17.6 | 108 ± 6.9 | number of revertant colonies (Mean ± SD) ([4]; TA100, -S9, 5000 μg/dish): 95 ± 7.2 |
| Cc1nnc(C(C)C)n1C1CC2CCC(C1)N2CC[C@H](NC(=O)C1CCC(F)(F)CC1)c1ccsc1 (stereo partly drawn) [Compound 22, 4,4-difluoro-N-[(1S)-3-[exo-3-(3-isopropyl-5-methyl-4H-1,2,4-triazol-4-yl)-8-azabicyclo[3.2.1]octane-8-yl]-1-(thiophen-3-yl)propyl]cyclohexane-1-carboxamide] | >800 | no mutagenic effect | 23 ± 3.2 | 24 ± 3.6 | 23 ± 2.6 | 21 ± 5.2 | 23 ± 6.7 | 23 ± 6.5 | 19 ± 6.4 | 22 ± 5.0 | 25 ± 7.2 | no mutagenic effect | 107 ± 16.7 | 109 ± 9.3 | 112 ± 10.7 | 90 ± 11.0 | 97 ± 4.6 | 102 ± 2.9 | 90 ± 6.5 | 86 ± 13.1 | number of revertant colonies (Mean ± SD) ([4]; TA100, -S9, 5000 μg/dish): 109 ± 17.5; AUC(0-t) [5]: 10900 ng·h/mL; AUC0-t ng/mL * h ([5]; Beagles, gavage, 15 mg/kg): 5426 ng·h/mL; Tmax h ([5]; Beagles, gavage, 15 mg/kg): 0.833 h; t1/2 h ([5]; Beagles, gavage, 15 mg/kg): 3.89 h; CLz ([5]; Beagles, vein, 3 mg/kg): 4.63 mL/min/kg; AUC(0-t) ([5]; male, beagle, dog, plasma, intravenous, 3 mg/kg): 10900 ng·h/mL; AUC(0-inf) [5, 7]: 10900 ng·h/mL; MRT [5, 7]: 1.65 h; half-life [5, 7]: 1.73 h; bioavailability ([5]; male, beagle, dog, plasma, oral): 9.98%; AUC(0-inf) [5, 8]: 5520 ng·h/mL; AUC(0-t) [5, 8]: 5430 ng·h/mL; Cmax [5, 8]: 4610 ng/mL; MRT [5, 8]: 2.11 h; bioavailability [5, 8]: 9.98%; half-life [5, 8]: 3.89 h; Tmax ([5]; male, beagle, dog, plasma, po, 15 mg/kg, Tmax h, Beagles, gavage): 0.833 h |
| Cc1nnc(C(C)C)n1C1CCN(CC[C@H](NC(=O)C2CCCC2)c2cccs2)CC1 [Compound 17, N-[(1S)-3-[4-(3-isopropyl-5-methyl-4H-1,2,4-triazol-4-yl)-piperidin-1-yl]-1-(thiophen-2-yl)propyl]cyclopentane-1-carboxamide] |  |  |  |  |  |  |  |  |  |  |  |  |  |  |  |  |  |  |  |  | AUC(0-t) ([6]; intravenous, 10 mg/kg): 374 ng·h/mL; AUC(0-inf) ([6]; iv, 10 mg/kg): 394 ng·h/mL; AUC(0-t) ([6]; iv, 10 mg/kg): 374 ng·h/mL; Cmax ([6]; iv, 10 mg/kg): 246 ng/mL; MRT ([6]; iv, 10 mg/kg): 1.42 h; Tmax ([6]; iv, 10 mg/kg): 0.25 h; bioavailability ([6]; oral): 46.6%; AUC(0-inf) ([6]; po, 20 mg/kg): 364 ng·h/mL; AUC(0-t) ([6]; po, 20 mg/kg): 348 ng·h/mL; Cmax ([6]; po, 20 mg/kg): 122 ng/mL; MRT ([6]; po, 20 mg/kg): 2.31 h; Tmax ([6]; po, 20 mg/kg): 0.5 h; bioavailability ([6]; po, 20 mg/kg): 46.6%; AUC0-t ng/mL * h ([6]; rats, gavage, 20 mg/kg): 347.9 ng·h/mL; CLz ([6]; rats, vein, 10 mg/kg): 423 mL/min/kg |
